Reference: patent publication US20240228488A1 (TAKEDA PHARMACEUTICAL COMPANY LIMITED, priority 2021, published 2024)

Tests used:
plasma kallikrein = target: T1, plasma kallikrein (Homo sapiens, UniProt P03952); assay: Neat human plasma assay, FXIIa contact pathway-activated, PFR-AMC substrate; format: biochemical; settings: citrated human plasma 78% final, 10 nM human FXIIa, 100 μM PFR-AMC; read-out: Human Plasma Assay: IC90
T1 construct: from tissue
In short: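 Citrated human plasma (78% final) with compound, contact-activated by 10 nM human FXIIa in pKal buffer pH 7.5, with 100 μM PFR-AMC. Fluorescence (360/480 nm) followed 5 min at room temperature; rates versus concentration fitted by 4-parameter equation for IC50/IC90.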

[1] = target: human activated kallikrein enzyme (Homo sapiens, UniProt P03952); assay: Plasma kallikrein inhibition, fluorogenic PFR-AMC substrate, 500 pM activated kallikrein format; format: biochemical; settings: 500 pM activated kallikrein, 300 uM PFR-AMC, 30 min preincubation, 10 min reaction; read-out: Primary Dose Response Assay: Average EC50
human activated kallikrein enzyme, sequence (P03952 391-638 limits assumed): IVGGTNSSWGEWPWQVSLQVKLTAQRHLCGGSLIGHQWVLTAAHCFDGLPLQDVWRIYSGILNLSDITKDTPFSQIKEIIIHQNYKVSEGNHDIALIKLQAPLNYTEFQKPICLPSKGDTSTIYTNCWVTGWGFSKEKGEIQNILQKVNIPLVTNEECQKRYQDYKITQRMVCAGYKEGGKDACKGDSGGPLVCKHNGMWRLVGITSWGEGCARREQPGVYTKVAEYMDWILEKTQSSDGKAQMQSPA
human activated kallikrein enzyme, sequence (P03952 20-390 partner limits assumed): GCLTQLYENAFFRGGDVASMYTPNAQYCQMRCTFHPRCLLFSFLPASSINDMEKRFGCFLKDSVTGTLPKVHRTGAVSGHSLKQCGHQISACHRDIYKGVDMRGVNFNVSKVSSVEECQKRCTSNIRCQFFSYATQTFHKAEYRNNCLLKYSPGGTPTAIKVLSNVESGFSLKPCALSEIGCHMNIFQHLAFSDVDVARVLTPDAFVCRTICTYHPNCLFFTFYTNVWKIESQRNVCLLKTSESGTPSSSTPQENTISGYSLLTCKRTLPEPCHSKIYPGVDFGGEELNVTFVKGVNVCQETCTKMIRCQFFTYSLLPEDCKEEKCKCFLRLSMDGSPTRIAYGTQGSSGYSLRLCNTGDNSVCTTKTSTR
In short: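 Enzyme (500 pM) was preincubated with inhibitor for 30 min at room temperature in 20 mM Tris pH 7.5, 1 mM EDTA, 150 mM NaCl, 0.1% PEG-400 and 0.1% Triton X-100. The reaction was started with 300 uM PFR-AMC, run 10 min, and fluorescence read at 460 nm (380 nm excitation). EC50 derived.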

T1 sequence (P03952 391-638 limits assumed): as the sequence (P03952 391-638 limits assumed) above
T1 sequence (P03952 20-390 partner limits assumed): as the sequence (P03952 20-390 partner limits assumed) above

Row | IC90 (plasma kallikrein) | EC50 [1] | Structure (SMILES)
1 | 400 to 1500 nM | 1 to 10 nM | CCN(Cc1cn2cc(C3CC3)cc(N3CC(=O)N(C)C3=O)c2n1)c1cc(NC(=O)[C@H]2C[C@@H]2c2nccc(C)n2)nc(C)n1 [Example 360, (1S,2S)-N-(6-(((6-cyclopropyl-8-(3-methyl-2,4-dioxoimidazolidin-1-yl)imidazo[1,2-a]pyridin-2-yl)methyl)(ethyl)amino)-2-methylpyrimidin-4-yl)-2-(4-methylpyrimidin-2-yl)cyclopropane-1-carboxamide]
2 | 400 to 1500 nM | < 1 nM | Cc1nc(NC(=O)[C@H]2C[C@@H]2c2ncc(F)c(C)n2)cc(N[C@H](C)c2cn3cc(C4CC4)cc(N4CC(=O)N(C)C4=O)c3n2)n1 (relative stereo) [Example 491, rac-(-(1S*,2S*)-N-(6-(((R)-1-(6-cyclopropyl-8-(3-methyl-2,4-dioxoimidazolidin-1-yl)imidazo[1,2-a]pyridin-2-yl)ethyl)amino)-2-methylpyrimidin-4-yl)-2-(5-fluoro-4-methylpyrimidin-2-yl)cyclopropane-1-carboxamide]
3 | 1500 to 10000 nM | < 1 nM | CN1C(=O)CN(c2cc(C3CC3)cn3cc(CNc4cc(NC(=O)[C@H]5C[C@@H]5c5cc(Cl)ccc5C#N)ncn4)nc23)C1=O (racemic) [Example I-170, rac-(1S*,2S*)-2-(5-chloro-2-cyanophenyl)-N-(6-(((6-cyclopropyl-8-(3-methyl-2,4-dioxoimidazolidin-1-yl)imidazo[1,2-a]pyridin-2-yl)methyl)amino)pyrimidin-4-yl)cyclopropane-1-carboxamide]
4 | 1500 to 10000 nM | 1 to 10 nM | CC(=O)c1cc(C2CC2)cn2cc(CNc3cc(NC(=O)[C@H]4C[C@@H]4c4cccc(Cl)c4)ncn3)nc12 [Example I-207, (1S,2S)-N-(6-(((8-acetyl-6-cyclopropylimidazo[1,2-a]pyridin-2-yl)methyl)amino)pyrimidin-4-yl)-2-(3-chlorophenyl)cyclopropane-1-carboxamide]
5 | 400 to 1500 nM | < 1 nM | CN1C(=O)CN(c2cc(C3CC3)cn3cc(CNc4cc(NC(=O)[C@H]5C[C@@H]5c5nccc(CF)n5)ncn4)nc23)C1=O (racemic) [Example I-163, rac-(1S*,2S*)-N-(6-(((6-cyclopropyl-8-(3-methyl-2,4-dioxoimidazolidin-1-yl)imidazo[1,2-a]pyridin-2-yl)methyl)amino)pyrimidin-4-yl)-2-(4-(fluoromethyl)pyrimidin-2-yl)cyclopropane-1-carboxamide]
6 | < 400 nM | < 1 nM | Cc1cc(N2CC(=O)N(C)C2=O)c2nc([C@@H](C)Nc3cc(NC(=O)[C@H]4C[C@@H]4c4nccc(C)n4)nc(C)n3)cn2c1 [Example 434, (1S,2S)-N-(2-methyl-6-(((R)-1-(6-methyl-8-(3-methyl-2,4-dioxoimidazolidin-1-yl)imidazo[1,2-a]pyridin-2-yl)ethyl)amino)pyrimidin-4-yl)-2-(4-methylpyrimidin-2-yl)cyclopropane-1-carboxamide]
7 | 400 to 1500 nM | < 1 nM | Cc1ccnc([C@H]2C[C@@H]2C(=O)Nc2cc(N3C[C@@H](O)C[C@@H]3c3cn4cc(C5CC5)cc(N5CCOC5=O)c4n3)ncn2)n1 (relative stereo) [Example 471, rac-(1S*,2S*)-N-(6-((2R,4S)-2-(6-cyclopropyl-8-(2-oxooxazolidin-3-yl)imidazo[1,2-a]pyridin-2-yl)-4-hydroxypyrrolidin-1-yl)pyrimidin-4-yl)-2-(4-methylpyrimidin-2-yl)cyclopropane-1-carboxamide]
8 | < 400 nM | < 1 nM | Cc1ccnc([C@H]2C[C@@H]2C(=O)Nc2nc(NCc3cn4cc(C5CC5)cc(N5CC(=O)N(C)C5=O)c4n3)nc(C3CC3)n2)n1 (racemic) [Example 523, rac-(1S*,2S*)-N-(4-cyclopropyl-6-(((6-cyclopropyl-8-(3-methyl-2,4-dioxoimidazolidin-1-yl)imidazo[1,2-a]pyridin-2-yl)methyl)amino)-1,3,5-triazin-2-yl)-2-(4-methylpyrimidin-2-yl)cyclopropane-1-carboxamide]
9 | 1500 to 10000 nM | 1 to 10 nM | Cc1ccnc([C@H]2C[C@@H]2C(=O)Nc2cc(NCc3cn4cc(C5CC5)cc(-n5[nH]c(=O)n(C)c5=O)c4n3)ncn2)n1 (racemic) [Example 386, rac-(1S*,2S*)-N-(6-(((6-cyclopropyl-8-(4-methyl-3,5-dioxo-1,2,4-triazolidin-1-yl)imidazo[1,2-a]pyridin-2-yl)methyl)amino)pyrimidin-4-yl)-2-(4-methylpyrimidin-2-yl)cyclopropane-1-carboxamide]
10 | 10000 to 48000 nM | < 1 nM | O=C(Nc1cc(NCc2cn3cc(C4CC4)cc(C4(F)COC4)c3n2)ccn1)[C@H]1C[C@@H]1c1cccc(Cl)c1 (racemic) [Example 294, rac-(1S*,2S*)-2-(3-chlorophenyl)-N-(4-(((6-cyclopropyl-8-(3-fluorooxetan-3-yl)imidazo[1,2-a]pyridin-2-yl)methyl)amino)pyridin-2-yl)cyclopropane-1-carboxamide]
11 | < 400 nM | < 1 nM | Cc1ccnc([C@H]2C[C@@H]2C(=O)Nc2cc(NCc3cn4cc(C5CC5)cc(N5CC(=O)N(C)C5=O)c4n3)c(C(F)(F)F)nn2)n1 [Example I-640, (1S,2S)—N-(5-(((6-cyclopropyl-8-(3-methyl-2,4-dioxoimidazolidin-1-yl)imidazo[1,2-a]pyridin-2-yl)methyl)amino)-6-(trifluoromethyl)pyridazin-3-yl)-2-(4-methylpyrimidin-2-yl)cyclopropane-1-carboxamide]
12 | 1500 to 10000 nM | 1 to 10 nM | CN1C(=O)CN(Cc2cc(C3CC3)cn3cc(CNc4cc(NC(=O)[C@H]5C[C@@H]5c5cccc(Cl)c5)ncn4)nc23)C1=O [Example 400, (1S,2S)-2-(3-chlorophenyl)-N-(6-(((6-cyclopropyl-8-((3-methyl-2,4-dioxoimidazolidin-1-yl)methyl)imidazo[1,2-a]pyridin-2-yl)methyl)amino)pyrimidin-4-yl)cyclopropane-1-carboxamide]
13 | 400 to 1500 nM | < 1 nM | Cc1ccnc([C@H]2C[C@@H]2C(=O)Nc2cc(NCc3cn4cc(C5CC5)cc(N5CC(=O)N(C)C5=O)c4n3)nc(CF)n2)n1 (racemic) [Example 353, rac-(1S*,2S*)—N-(6-(((6-cyclopropyl-8-(3-methyl-2,4-dioxoimidazolidin-1-yl)imidazo[1,2-a]pyridin-2-yl)methyl)amino)-2-(fluoromethyl)pyrimidin-4-yl)-2-(4-methylpyrimidin-2-yl)cyclopropane-1-carboxamide]
14 | 400 to 1500 nM | < 1 nM | CN1C(=O)CN(c2cc(C3CC3)cn3cc(CNc4cc(NC(=O)[C@H]5C[C@@H]5c5cc(Cl)ccn5)ncn4)nc23)C1=O (single isomer, unassigned) [Example I-264]
15 | 400 to 1500 nM | < 1 nM | Cc1ccnc([C@H]2C[C@@H]2C(=O)Nc2cc(NCc3cn4cc(C5CC5)cc(N5CC(=O)N(C)C5=O)c4n3)nc(C(F)(F)F)n2)n1 (racemic) [Example 501, rac-(1S*,2S*)-N-(6-(((6-cyclopropyl-8-(3-methyl-2,4-dioxoimidazolidin-1-yl)imidazo[1,2-a]pyridin-2-yl)methyl)amino)-2-(trifluoromethyl)pyrimidin-4-yl)-2-(4-methylpyrimidin-2-yl)cyclopropane-1-carboxamide]
16 | < 400 nM | 1 to 10 nM | O=C(Nc1cc(N2C[C@@H](O)C[C@@H]2c2cn3cc(C4CC4)ccc3n2)ncn1)[C@H]1C[C@@H]1c1cc(Cl)ccn1 (single isomer, unassigned; isomer 2) [Example I-249, (1S*,2S*)-2-(4-chloropyridin-2-yl)-N-(6-((2R,4S)-2-(6-cyclopropylimidazo[1,2-a]pyridin-2-yl)-4-hydroxypyrrolidin-1-yl)pyrimidin-4-yl)cyclopropane-1-carboxamide, isomer 2]
17 | 1500 to 10000 nM | < 1 nM | Cc1ccnc([C@H]2C[C@@H]2C(=O)Nc2cc(NC(C)c3cn4cc(C5CC5)cc(S(C)(=O)=O)c4n3)nc(C)n2)n1 (stereo partly drawn) [Example 363, (1S,2S)-N-(6-((1-(6-cyclopropyl-8-(methylsulfonyl)imidazo[1,2-a]pyridin-2-yl)ethyl)amino)-2-methylpyrimidin-4-yl)-2-(4-methylpyrimidin-2-yl)cyclopropane-1-carboxamide]
18 | 400 to 1500 nM | < 1 nM | Cc1ccnc([C@H]2C[C@@H]2C(=O)Nc2nc(C)nc(OCc3cn4cc(C5CC5)cc(N5CC(=O)N(C)C5=O)c4n3)n2)n1 [Example 573, (1S,2S)—N-(4-((6-cyclopropyl-8-(3-methyl-2,4-dioxoimidazolidin-1-yl)imidazo[1,2-a]pyridin-2-yl)methoxy)-6-methyl-1,3,5-triazin-2-yl)-2-(4-methylpyrimidin-2-yl)cyclopropane-1-carboxamide]
19 | < 400 nM | < 1 nM | COCc1cnc(NC(=O)[C@H]2C[C@@H]2c2nccc(C)n2)nc1NCc1cn2cc(C3CC3)cc(N3CC(=O)N(C)C3=O)c2n1 (racemic) [Example 621, rac-(1S*,2S*)—N-(4-(((6-cyclopropyl-8-(3-methyl-2,4-dioxoimidazolidin-1-yl)imidazo[1,2-a]pyridin-2-yl)methyl)amino)-5-(methoxymethyl)pyrimidin-2-yl)-2-(4-methylpyrimidin-2-yl)cyclopropane-1-carboxamide]
20 | 1500 to 10000 nM | < 1 nM | NCc1cc(C2CC2)cn2cc(CNc3ccnc(NC(=O)[C@H]4C[C@@H]4c4cccc(Cl)c4)c3)nc12 [Example 293, (1S,2S)—N-(4-(((8-(aminomethyl)-6-cyclopropylimidazo[1,2-a]pyridin-2-yl)methyl)amino)pyridin-2-yl)-2-(3-chlorophenyl)cyclopropane-1-carboxamide]
